Reference: article PMC4699463 (2015)

Tests used:
Test in all cases: F-neo fluorescence displacement
[1] = tested on: pre-hsa-miR 504 (RNA, miRNA) GCUGCUGUUGGGAGACCCUGGUCUGCACUCUAUCUGUAUUCUUACUGAAGGGAGUGCAGGGCAGGGUUUCCCAUACAGAGGGC; settings: 25 mM KCl; 10 mM sodium phosphate, 0.05 mM EDTA, pH 6.5; tracer 100 nM F-neo, 16.7 nM pre-miRNA; per site
[2] = tested on: hsa-miR 142 (RNA, miRNA) CAUAAAGUAGAAAGCACUACUUU/AGUAGUGCUUUCUACUUUAUGUU; settings: 25 mM KCl; 10 mM sodium phosphate, 0.05 mM EDTA, pH 6.5; tracer 100 nM F-neo, 100 nM miRNA; per site
[3] = tested on: hsa-miR 504 (RNA, miRNA) AGACCCUGGUCUGCACUCUAUCUU/GAUAGAGUGCAGACCAGGGUCUUU; settings: 25 mM KCl; 10 mM sodium phosphate, 0.05 mM EDTA, pH 6.5; tracer 100 nM F-neo, 50 nM miRNA; per site
[4] = tested on: hsa-miR 335 (RNA, miRNA) UCAAGAGCAAUAACGAAAAAUGUUU/ACAUUUUUCGUUAUUGCUCUUGAUU; settings: 25 mM KCl; 10 mM sodium phosphate, 0.05 mM EDTA, pH 6.5; tracer 100 nM F-neo, 100 nM miRNA; per site

NC[C@@H]1O[C@H](O[C@H]2[C@@H](O)[C@H](O[C@@H]3[C@@H](O)[C@H](N)C[C@H](N)[C@H]3O[C@H]3O[C@H](CN)[C@@H](O)[C@H](O)[C@H]3N)O[C@@H]2CO)[C@H](N)[C@@H](O)[C@@H]1O
IC50 [1]: 56.2 ± 2.3 nM | IC50 [2]: 95.7 ± 5.6 nM | IC50 [3]: 70.3 ± 1.6 nM | IC50 [4]: 117.4 ± 8.1 nM
